Measured values: patent publication US20260256792A1, “TREATMENT OF CHRONIC SPONTANEOUS URTICARIA BY ADMINISTERING (R)-2-[3-[4-AMINO-3-(2-FLUORO-4-PHENOXY-PHENYL)PYRAZOLO[3,4-D]PYRIMIDIN-1-YL]PIPERIDINE-1-CARBONYL]-4-METHYL-4-[4-(OXETAN-3-YL)PIPERAZIN-1-YL]PENT-2-ENENITRILE” (priority 2023, published 2026)

System: sMRGPRX2
Assay: Phase 2 CSU study: serum sMRGPRX2 ELISA
Type: in vivo, human
Conditions: for SMRGPRX2 (ng/mL) Median Percent Change from Baseline: Baseline to Week 12
Text: Blood samples were also collected through Week 12 to evaluate the change in baseline in various biomarkers, including sMRGPRX2, IgG anti-TPO, IgG anti-FCεRI, IgG anti-IgE, and IL-31.
Collection of biological samples for other biomarker research was also part of this study. The following samples for biomarker research were required and were to be collected from all participants in this study: • Serum and plasma samples for soluble biomarkers and cellular tests. Analytes included IgG anti-IgE, IgG anti-FcεRI, IgG anti-TPO, IgE anti-TPO, IL-31, and sMRGPRX2. • Blood samples for immune cell phenotyping, including measurement of eosinophil levels • Blood samples for BTK occupancy in peripheral blood mononuclear cells (PBMCs) at selected sites
For each patient, serum samples were to be collected on each of four visits (Visits 2, 4, 6, and end of study/follow up).
Serum analyte testing was to be performed using the following commercial assays: • sMRGPRX2 ELISA (Cat. No. #MBS933336; MyBioSource) • IL-31 HTRF assay (Cat. No. #62HIL31PEG; Cisbio/PerkinElmer) • IgG anti-TPO ELISA (Cat. No. #ORG503; Orgentec Diagnostica GmbH)
If dilutions were to be prepared, the same dilutions were to be prepared twice from each sample. These were to be measured on different plates. Each plate was to include a standard curve. Samples were to be measured twice for all biomarkers except for sMRGPRX2. Mean measurement values were to be calculated, and the concentration of the biomarker was to be calculated using GraphPad Prism 9 software (4-PL model).
For the sMRGPRX2 ELISA, measurements were performed according to the manufacturer's instructions. Single measurements were obtained for all samples.
Assay data ranges are described below. • sMRGPRX2: 0.1 ng/mL-10 ng/mL • IgG anti-FCεRI: 0-10000 arbitrary units (AU) • IgG anti-TPO: 0-3000 international units (IU) • IgE anti-TPO: 0-500 AU • IgG anti-IgE: 0-100000 AU • IL-31: 0.1 ng/mL-20 ng/mL

In the case of `CC(C)(C=C(C#N)C(=O)N1CCC[C@@H](n2nc(-c3ccc(Oc4ccccc4)cc3F)c3c(N)ncnc32)C1)N1CCN(C2COC2)CC1` [rilzabrutinib, (R)-2-[3-[4-amino-3-(2-fluoro-4-phenoxy-phenyl)pyrazolo[3,4-d]pyrimidin-1-yl]piperidine-1-carbonyl]-4-methyl-4-[4-(oxetan-3-yl)piperazin-1-yl]pent-2-enenitrile], the “reduction from baseline median sMRGPRX2 levels” value (400 mg TID, Week 12) was 22.8%, the “SMRGPRX2 (ng/mL) Median Percent Change from Baseline” value (400 mg BID) was −29.3% and the “SMRGPRX2 (ng/mL) Median Percent Change from Baseline” value (400 mg QPM) was −31.1%. The “SMRGPRX2 (ng/mL) Median Percent Change from Baseline” value (400 mg TID) was −22.8%.
